# Measurements published in US9040637B2, “Manganese comprising nanostructures” (SPAGO IMAGING AB, priority 2011, dated 2015).
# Experiments:
# Assay type in all cases: physicochemical
# [1] = Complexometric stability test (equimolar EDTA) evaluated by relaxometry; conditions: 1 mM Mn standard + equimolar EDTA, pH 7±0.5, 60 MHz, 37° C.
# Procedure: Measure the longitudinal relaxivity of a nanostructure solution (r1(ns)) having a concentration of 1 mM Mn. Prepare another nanostructure solution containing 1 mM Mn and add an equivalent molar amount of EDTA. The pH of this solution must be adjusted to pH 7±0.5, if necessary. Measure the longitudinal relaxivity of this nanostructure solution with added EDTA (r1(ns+EDTA)). As a reference material, 1 mM solution using a Manganese Standard for AAS (Fluka 77036) is prepared, added an equimolar amount of EDTA, and pH adjusted to pH 7±0.5. The longitudinal relaxivity is measured (r1(Mn+EDTA)) and resulted to a value of 1.6 mM^−1s^−1. To calculate the % Mn-released from the nanostructure after addition of equivalent EDTA:
# [formula] Note: Relaxation (T1, in seconds) is measured using the Minispec mq60 NMR analyzer (60 MHz) at 37° C. and relaxivity r1 is calculated using:
# [formula] where T1 H2O=[…]; c1=1 mM.
# [2] = Hydrodynamic diameter by dynamic light scattering (DLS), volume average; conditions: aqueous solution
# Procedure: The term “DLS” as used herein is an acronym for dynamic light scattering, a particle sizing method, and may also be referred to as Photon Correlation Spectroscopy or Quasi-Elastic Light Scattering. The DLS sizes given as stated in the text and in the claims, if nothing else is specified, refers to the position of the maximum of the volume average peak for a sample measured at 25° C. in neutral aqueous solution with an ionic strength corresponding to 150 mM NaCl.
# The hydrodynamic diameter referred to, is the diameter of the equivalent hard sphere as calculated from the diffusion coefficient, according to the Stokes-Einstein equation. The diffusion coefficient is in turn calculated from the time dependent light scattering data obtained by the Dynamic Light Scattering (DLS) technique. As a comparison, bovine serum albumin is measured to have a hydrodynamic diameter of 6.5 nm by DLS in aqueous solution, very much in agreement with the crystal structure. Depending on whether the number average, volume average, or scattered intensity average is used, the values may be somewhat different. […] The average diameters referred to in this text refers to volume averages.
# [3] = Relaxivity (r1, r2) measurement at 1.91 T (81.33 MHz); conditions: in H2O @ 25 C.
# Description: Furthermore, the effect of a compound on the T1 is given as the relaxivity so a high relaxivity gives a stronger signal enhancement. The relaxivity (r) is frequency dependent in a structure dependent way which complicates the comparison of data from the literature from different sources. The clinical MRI scanners usually have a magnetic field of 1.5 or 3 Tesla so we have measured our relaxivities at 1.91 T, corresponding to a proton resonance frequency of 81.3 MHz, as a reasonable compromise. Measurements may also be done at other frequencies, such as 60 MHz. The relaxivity for the commercially available gadolinium based contrast agents are close to 4/mMGd/s at the clinically relevant fields.
compound,measurement,setting,value
Mn+EDTA,longitudinal relaxivity r1(Mn+EDTA),[1],1.6 mM⁻¹ s⁻¹
bovine serum albumin: size comparison for DLS,hydrodynamic diameter by DLS,[2],6.5 nm
[Cl][Mn][Cl] [MnCl2],r1,[3],5.8
